We go through one sequence from US9175077B2, “Nucleic acids encoding biologically active polypeptides derived from a novel early stage pregnancy factor designated maternin (MA)” (NOBEL BIOSCIENCES LLC, priority 1999, dated 2015).

Where “and” joins values, the source holds several entries; their conditions need not be identical. Equal entries are not always repeated.

Experiment [1] concerns human primitive hematopoietic stem cells. Kind of experiment: Long term cultures (LTC-IC, stroma-free) of CD34+, CD38− cells from human BMMC. It counts as cell-based. How it is done: In the human system, a long-term culture-initiating assay (LTC-IC) can be used to detect cells that can generate myeloid clonogenic cells (CFC/colony forming cells) in long-term cultures for a minimum of 5 weeks. Bone marrow stromal was produced by culturing 107 fresh BM-MNC in a T25 flash for at least 2 weeks in 5 mL stromal medium; 12.5% horse [HS] and 12.5% fetal calf serum [FCS]; both from hyclone [Logan, Utah], Iscove's modified Dulbecco's medium [IMDM, GIBCO-BRL], 2-mercaptoethanol [Sigma, st. Louis, Mo.], 10^−6 mol/L hydrocortisone [Sigma] and penicillin/streptomycine.
One or 2 days before co-cultures, bone marrow stroma was irradiated with 15Gy and plated at 7×10^3/cm^2 in 24-well plates to form pre-established stromal layers for the long-term cultures. Limiting dilution was 1 to 1000 CD34+ bone marrow/cord blood cells and equivalent aliquots, i.e., limiting dilutions of the cells grown in long-term cultures stroma-free cultures after 2 to 20 weeks were seeded on top of the irradiated bone marrow stroma in culture medium containing IMDM, 12.5% HS, 12.5% FCS, 2-mercptoethanol, and 10^−6 mon-hydrocortisone for 5 weeks LTC-IC assay period. Non-adherent cells were removed from the cultures, combined with the corresponding trypsinized adherent cells, washed and assayed for colony forming units (CFU-Cs) in methylcellulose medium containing 1.3% methylcellulose (Fluka Chemilka Biochemika, buck\hs, Switzerland), 30% FCS, EPO (3 U/ml), IL-3 (20 ng/ml), G-CSF (20 ng/ml), GM-CSF (20 ng/ml) and KL (c-kit, 50 ng/ml). These cultures were incubated at 37° C. and colonies were scored 2 to 3 weeks later. LTC-IC enumeration was based on the number of CFU-C scored in the limiting assays [LDA] and another technique.
Stroma-free long-term cultures were performed as follows. 2 to 10×10^3 CD34+/CD34^−CD38^− from bone marrow/CB/PBMC cells were cultured in quadrutriplicate flat bottomed 24 well plates in 1 ml to of IMDM supplemented with 10% FCS and the following cytokines: IL-3 (10 ng/ml), IL-6 (10 ng/ml), KL [c-kit 50 ng/ml, FL (50 ng/ml) and TPO (10 U/ml), which added, alone or in combination of two or more factors, to each series of microwells twice a week. The wells were grown at 37° C. and share a number of features with in vivo murine long-term repopulating cells. These include assay for cobblestone areas colony forming cells (CAFC), high proliferative potentials colony-forming cells (HPP-CFC), CFU-GEMM, CFU-B1 (blast colony forming units).

Experiment [2] has as its system human tumor cells. The class given is cell-based. As to the method: The anti-tumor activities of MA were assessed in several in vitro and in vivo systems using published methods.^166 In vitro studies were with a wide variety of human tumor cell lines as well as short-term cultures of cells from biopsy samples obtained from tumors. The assays included effects of MA on colony formation, cell number and viability (trypan blue), and apoptosis. Four measures of microscopy were used. In vivo studies included the effects of MA on tumors induced in immunodeficient mice by xenotransplanted various human neoplastic cells, spontaneous neoplasms of immuno-competent mice and rats, and a few standard tumors in immuno-competent mice. Representative examples are presented.
Cells (5×10^5/ml) were seeded in modified Eagle's medium supplemented with 10% FCS, 10% conditioned medium form PHA stimulated human lymphocytes, 2 mM glutamine in 0.8% V/V methylcellulose with or without various treatments in a final volume of 1.0 ml. Then 0.1 ml aliquots were seeded in 96 well flat bottom microtest plates and incubated at 37° C. in 5% CO2 in air for 7 days. Aggregates containing 50 cells or more were scored as colonies.
5×10^5 cells were seeded in triplicate on 24 gelatin coated wells in conditions as described for Panel A and treated with the indicated test materials. After 3 days the cells were dislodged from their monolayers by gentle pipetting with cell dissociation buffer (Life Technologies), counted after trypan blue staining and aliquots examined for Annexin V staining by indirect IFA […].
Studies of the anti-tumor cell effects of MA were extended to other carcinomas, melanoma, some hematopoietic tumors, and carcinomas of the colon, prostate, breast, lung, brain, pancreas, and kidney-using cell lines from these tumors. […] Many more types of tumor cells were studied utilizing other assays (see below).

Experiment [3] has as its system human bone marrow stem cells. The experiment can be described thus: Engraftment of ex vivo expanded hematopoietic progenitor cells in irradiated rats. Also on record: species or system Sprague Dawley rats. The following applies: Rat S. Dawley irradiated 450 RAD; n = 3. From the text: The inventors also investigated the effect of MA on engraftment of human bone marrow stem cells [CD34^+, CD38″ cells, long term cultures after 4 mos, and stromal free cultures] ex vivo expanded hematopoietic progenitor cells in Rats irradiated [Sprague DAwley, 450 Rad] and immunodeficient mice [SCID or BNX-XID mice].
Measurement of short-term hematopoietic reconstitution kinetics and long term repopulating ability. Just prior to implantation, SCID, BNX-XID-immunodeficient mice and Sprague Dawley rats were exposed to 450 rad total body γ-irradiation. […] But the SCID and BNX-XID immunodeficient mice were repopulated by the cultured, treated human cells.

The subject of experiment [4] is HIV-1 transgene expression. Kind of experiment: HIV-1 transgenic rats. It counts as in vivo. From the text: Because of the extraordinary effects of MA in the mouse modes, we were concerned that the results might be peculiar to the model. Consequently, an HIV-1 transgenic rat model was developed. An additional advantage of the rat model is the larger size of the animals, enabling direct inoculation of MA into the developing pups rather than therapy being indirect (the lactating mother) and limited to the lactation phase. Thus, the transgenic rats can be followed and treated much longer.
Like the transgenic mice, the transgenic rats contain HIV-1 provirus PNNL 4-3, again deleted in gag/pol, and also develop hyperkeratosis. Additionally, they develop tissue fibrosis, inflammatory changes, and some histopathology more similar to human AIDS than in the mouse model, but unlike the HIV-1 transgenic mice the effect is usually not lethal. The changes correlate with expression of HIV-1 proteins. The transgenic rats are more fully described in copending U.S. patent application Ser. No. 09/058,113, by Bryant et al., filed Apr. 9, 1998, entitled “HIV Transgenic Animals and Uses Therefor,” the entire disclosure of which is incorporated herein by reference.
Inoculation (subcutaneous) of a 250-300 gm mother with 300 pmoles of MA for 10 days began after birth of the pups. […]

[5] abbreviates: LTC stroma free after 3 mos, n = 3.

On to “VVCNYRDVRFESIRLPGCPRGVNPVVSYAVALSCQ [MA]”, for which, in experiment [1] (setting [5]), the BFU-e is listed as 161 ± 8, the CFU-GM was 198 ± 11, the CFU-Mixed is recorded as 13 ± 3 and the T-CFC was 199 ± 10. Further, in experiment [1] (culture 3), the “CFU-GM: % of CD14” value amounted to 27% and the “CFU-GM: % of CD68” value was 22%. Besides, the “CD34+ cells” value in experiment [1] (culture 3 (LTC stroma free treated with MA)) was 77.71%. Further, in experiment [1] (for 1, 2, and 3 (respectively)), the “T colonies Rx MA: CD3+/CD4+” value is 38% and 28% and 46%; the “T colonies Rx MA: CD3+/CD8+” value is 32% and 29% and 49%. In addition, in experiment [2], the “effect on HTLV-I induced adult T-cell leukemia” value is reported as “no effect” and the “effect on some β-cell lymphomas” value was “no effect”. In experiment [3], the CD4 came to 1%, the CD14 is recorded as 1% and the CD34 was 40%. Besides, the survival and development result in experiment [4] (300 pmoles to mother for 10 days, then direct subcutaneous inoculation) is given as “survived, developed normally”. In addition, the transgene expression entry in experiment [4] (rat, in vivo) is given as “markedly reduced”.
